In patent publication US20230135215A1, “COMPOUNDS AS CDK2/4/6 INHIBITORS” (Fochon Biosciences, Ltd., priority 2020, published 2023):

Experiments:
HCC1806 cells = experiment: Cell proliferation assay (MTS), HCC1806 (CDK4/6 independent) cells; type: cell-based; details: Homo sapiens, HCC1806 (CDK4/6 independent) cell proliferation inhibition, 120 h incubation, absorbance 490 nm
From the text: (§1) MTS testing kit was purchased from Promega (Madison, Wis., USA). The RPMI-1640, DMEM, Fetal bovine serum and Penicillin-Streptomycin were purchased from BI (Biological Industries, Beit Haemek, Israel). Dimethyl sulfoxide (DMSO) was purchased from Sigma (St. Louis, Mo., USA).
(§2) To investigate whether a compound is able to inhibit the activity of CDK2/4/6 in cells, we developed a mechanism-based assay using HCC1806 (CDK4/6 independent) and Hs68 (CDK4/6 dependent) cell lines. In this assay, inhibition of CDK2/4/6 was detected by the cell proliferation inhibition of HCC1806 and Hs68 cells. HCC806 and HS68 cells cultured in PRMI-1640 and DMEM supplemented with 10% fetal bovine serum respectively to 40-80% confluence were collected and plated into 96-well plates at desired cell density of 5×10^3/mL. Plates were incubated at 37° C., with 5% CO2 for 24 h. Compounds were serially diluted and added to the plates with the final concentrations as 10000, 3333.3, 1111.1, 370.4, 123.5, 41.2, 13.7, 4.6 and 1.5 nM. Plates were incubated at 37° C., with 5% CO2 for 120 h. A mixture of 20 μl MTS/100 μl medium were added to each well and the plates were incubated at 37° C., with 5% CO2 for exactly 2 h. The absorbance was measured by a microplate reader at 490 nm. IC50 was calculated using GraphPad Prism 5.0 software.

Hs68 cells = experiment: Cell proliferation assay (MTS), Hs68 (CDK4/6 dependent) cells; type: cell-based; details: Homo sapiens, Hs68 (CDK4/6 dependent) cell proliferation inhibition, 120 h incubation, absorbance 490 nm
From the text: as §1, §2

IC50 (HCC1806 cells)	Compound	IC50 (Hs68 cells)
308 nM	CS(=O)(=O)N1CCC(Nc2ncc3cc(Cl)c(=O)n(C4CCCC45CC5)c3n2)CC1 (stereo not drawn) [Example 7, 6-Chloro-2-((1-(methylsulfonyl)piperidin-4-yl)amino)-8-(spiro[2,4]heptan-4-yl)pyrido[2,3-d]pyrimidin-7(8H)-one]	233 nM
409 nM	NS(=O)(=O)N1CCC(Nc2ncc3ccc(=O)n([C@H]4CCCC45CC5)c3n2)CC1 [Example 30, (S)-4-((7-oxo-8-(spiro[2.4]heptan-4-yl)-7,8-dihydropyrido[2,3-d]pyrimidin-2-yl)amino)piperidine-1-sulfonamide]	–
118 nM	CNS(=O)(=O)N1CCC(Nc2ncc3ccc(=O)n([C@H]4CCCC45CC5)c3n2)CC1 [Example 31, (S)-N-methyl-4-((7-oxo-8-(spiro[2.4]heptan-4-yl)-7,8-dihydropyrido[2,3-d]pyrimidin-2-yl)amino)piperidine-1-sulfonamide]	418 nM
305 nM	CS(=O)(=O)N1CCC(Nc2ncc3cc(Br)c(=O)n(C4CCCC45CC5)c3n2)CC1 (stereo not drawn) [Example 8, 6-Bromo-2-((1-(methylsulfonyl)piperidin-4-yl)amino)-8-(spiro[2,4]heptan-4-yl)pyrido[2,3-d]pyrimidin-7(8H)-one]	105 nM
318 nM	CS(=O)(=O)N1CCC(Nc2ncc3cc(F)c(=O)n(C4CCCC45CC5)c3n2)CC1 (stereo not drawn) [Example 22, 6-fluoro-2-((1-(methylsulfonyl)piperidin-4-yl)amino)-8-(spiro[2.4]heptan-4-yl) pyrido[2,3-d]pyrimidin-7(8H)-one]	–
–	Cc1cc2cnc(NC3CCN(S(C)(=O)=O)CC3)nc2n(C2CCCC23CC3)c1=O (stereo not drawn) [Example 2, 6-Methyl-2-((1-(methylsulfonyl)piperidin-4-yl)amino)-8-(spiro[2,4]heptan-4-yl)pyrido[2,3-d]pyrimidin-7(8H)-one]	322 nM
150 nM	CS(=O)(=O)N1CCC(Nc2ncc3ccc(=O)n([C@@H]4CCCC45CC5)c3n2)CC1 [Example 23, (R)-2-((1-(methylsulfonyl)piperidin-4-yl)amino)-8-(spiro[2.4]heptan-4-yl)pyrido[2,3-d]pyrimidin-7(8H)-one]	489 nM
139 nM	CS(=O)(=O)N1CCC(Nc2ncc3cc(C(F)F)c(=O)n([C@@H]4CCCC45CC5)c3n2)CC1 [Example 19, (R)-6-(difluoromethyl)-2-((1-(methyl-sulfonyl)piperidin-4-yl)amino)-8-(spiro[2.4]heptan-4-yl)pyrido[2,3-d]pyrimidin-7(8H)-one]	–
379 nM	CS(=O)(=O)N1CCC(Nc2ncc3ccc(=O)n(C4CCCC45CC5)c3n2)CC1 (stereo not drawn) [Example 1, 2-((1-(Methylsulfonyl)piperidin-4-yl)amino)-8-(spiro[2,4]heptan-4-yl)pyrido[2,3-d]pyrimidin-7(8H)-one]	318 nM
233 nM	CS(=O)(=O)N1CCC(Nc2ncc3cc(C(F)F)c(=O)n(C4CCCC45CC5)c3n2)CC1 (stereo not drawn) [Example 18, 6-(difluoromethyl)-2-((1-(methylsulfonyl)piperidin-4-yl)amino)-8-(spiro[2.4]heptan-4-yl)pyrido[2,3-d]pyrimidin-7(8H)-one]	–
78 nM	CS(=O)(=O)N1CCC(Nc2ncc3ccc(=O)n([C@H]4CCCC45CC5)c3n2)CC1 [Example 24, (S)-2-((1-(methylsulfonyl)piperidin-4-yl)amino)-8-(spiro[2.4]heptan-4-yl)pyrido[2,3-d]pyrimidin-7(8H)-one]	437 nM
211 nM	CS(=O)(=O)N1CCC(Nc2ncc3cc(C(F)F)c(=O)n([C@H]4CCCC45CC5)c3n2)CC1 [Example 20, (S)-6-(difluoromethyl)-2-((1-(methylsulfonyl)piperidin-4-yl)amino)-8-(spiro[2.4]heptan-4-yl)pyrido[2,3-d]pyrimidin-7(8H)-one]	–
